In the NIST ThermoML archive (doi:10.1021/je060017i):
Numbers after ± are expanded uncertainties.

Conditions: 101.33 kPa, Liquid

| Compound | mass density (283.15 K) [kg/m3] | speed of sound (283.15 K) [m/s] | viscosity (283.15 K) [mPa·s] | mass density (298.15 K) [kg/m3] | speed of sound (298.15 K) [m/s] | viscosity (298.15 K) [mPa·s] | mass density (313.15 K) [kg/m3] | speed of sound (313.15 K) [m/s] | viscosity (313.15 K) [mPa·s] |
| --- | --- | --- | --- | --- | --- | --- | --- | --- | --- |
| CC1CCCO1 (stereo not drawn) [2-methyltetrahydrofuran] | 864.17 ± 0.55 | 1276.6 ± 1.6 | 0.5618 ± 0.015 | 849.04 ± 0.56 | 1202.2 ± 1.6 | 0.4776 ± 0.014 | 833.76 ± 0.57 | 1129.9 ± 1.6 | 0.4088 ± 0.012 |
| CCCCO [butan-1-ol] | 816.92 ± 0.59 | 1292.1 ± 1.7 | 3.869 ± 0.087 | 805.73 ± 0.6 | 1242.9 ± 1.6 | 2.561 ± 0.059 | 794.38 ± 0.6 | 1186.3 ± 1.6 | 1.757 ± 0.042 |
